“Also recorded” adds a separate entry of the source.
What was measured:
permanent MCAO model = experiment: Permanent focal cerebral ischemia model (permanent MCAO); type: in vivo, rat
[1] = system: mouse PD model induced by MPTP; experiment: MPTP-induced mouse PD model (pole test, TH staining); type: in vivo; details: 5 mg·kg^−1 s.c. for 11 days, C57B1/6J mice
Procedure: The mouse PD model induced by 1-methyl-4-phenyl-1,2,3,6-tetrahydro-pyridine (MPTP) is used to test the effect of paeoniflorin on the ability of climbing pole and the deletion of dopamine neuron of substantia nigra of midbrain in the PD model mouse. Male C57B1/6J mice of 20-25 g are used. The climbing pole time of the mice are measured before experiment. The mice are divided into 5 groups according to the climbing pole time and there are 8 mice in each group. Low dose and middle dose paeoniflorin are administered by subcutaneous injection for 11 days continuously, and 1-methyl-4-phenyl-1,2,3,6-tetrahydro-pyridine (MPTP) is injected intraperitoneally (ip) at 2 hours intervals for 4 times on day 8 of the experiment to induce mouse PD model.
The motor activity of the mice are measured by pole test, the mice are put on to the vertical coarse pole of 55 cm long and 8 mm diameter with head downward, and the time that the mice go downward to all the limbs contact the ground is measured (Hamaue N, Minami M, Terado M, Hirafuji M, Endo T, Machida M, Hiroshige T, Ogata A, Tashiro K, Saito H, Parvez S H. Comparative study of the effects of isatin, an endogenous MAO-inhibitor, and selegiline on bradykinesia and dopamine levels in a rat model of Parkinson's disease induced by the Japanese encephalitis virus. Neurotoxicology. 2004 January; 25(1-2):205-13.).
Male C57B1/6J mice of 20-25 g were used. The climbing pole time of the mice was measured before experiment. The mice were divided into 5 groups according to the climbing pole time and there were 8 mice in each group. Paeoniflorin (2.5 mg kg^−1, 5 mg kg^−1) were administered by subcutaneous injection for 11 days continuously, and 1-methyl-4-phenyl-1,2,3,6-tetrahydro-pyridine (MPTP) was injected intraperitoneally (ip) at 2 hours intervals for 4 times on day 8 of the experiment to induce mouse PD model. The administration schedule was as follows:
The mice were put on to the vertical coarse pole of 55 cm long and 8 mm diameter with head downward, and the time that the mice went downward to all the limbs contacted the ground was measured.
The heart was perfused with 4% paraformaldehyde to be pro-fixed, and then the cerebrum was taken out, and post-fixed with 4% formaldehyde solution for 1 week. Coronal sections were performed continuously (section thick […]). Tyrosine hydroxylase (TH) was used as the specific marker of dopamine neuron. The primary antibody was monoclonal mouse TH antibody (1:1000, Sigma), the second antibody was Alexa fluor 488 fluorescence labeled goat anti-mouse (1:1000, Molecular Probes). Photographs were taken under fluorescence microscope (Olympus DP70), and TH positive cells of substantia nigra were counted.

[2] = Blood pressure and heart rate of conscious rat (tail sleeve sensor); type: in vivo; details: 10, 40, 160 mg kg^−1 i.v., 5 min to 2 hr after administration
Procedure: The conscious rats are used as research subject, sensors of tail sleeve are used to transduce the pressure pulse to phototriodes and convert it into corresponding blood pressure and heart rate values. When the rats calm down, their blood pressure and heart rate values are recorded as the base values. Then, physiological saline, various doses of paeoniflorin and reserpine are injected through caudal vein respectively.
The changes of blood pressure and heart rate before the administration (0 min) and after the administration (5 min to 2 hr) are recorded.
The conscious rats were used as research subject, sensor of tail sleeve were used to transduce the pressure pulse to phototriodes and converted it into corresponding blood pressure value and heart rate values. When the rats calmed down, their blood pressure and heart rate value were recorded as the base values. Then, physiological saline, paeoniflorin (10, 40, 160 mg kg^−1) and reserpine were injected through caudal vein respectively.
The changes of blood pressure and heart rate before the administration (0 min) and after the administration (5 min to 2 hr) were recorded.

A2AR = molecular target: T1, A2AR (Rattus norvegicus, UniProt P30543); experiment: Competitive binding with [3H]-NECA, low-affinity site (two-site fit), rat cerebral cortex synaptic membranes; details: two-site competition fit, site 2; 25 nmol/L [3H]-NECA; rat cerebral cortex synaptic membrane; read-out: EC502, competitive binding with [3H]-NECA
T1 construct: Synaptic membranes of rat cerebral cortex are employed in the assay; from tissue; host or cells: rat cerebral cortex synaptic membranes
T1 sequence (P30543 whole entry): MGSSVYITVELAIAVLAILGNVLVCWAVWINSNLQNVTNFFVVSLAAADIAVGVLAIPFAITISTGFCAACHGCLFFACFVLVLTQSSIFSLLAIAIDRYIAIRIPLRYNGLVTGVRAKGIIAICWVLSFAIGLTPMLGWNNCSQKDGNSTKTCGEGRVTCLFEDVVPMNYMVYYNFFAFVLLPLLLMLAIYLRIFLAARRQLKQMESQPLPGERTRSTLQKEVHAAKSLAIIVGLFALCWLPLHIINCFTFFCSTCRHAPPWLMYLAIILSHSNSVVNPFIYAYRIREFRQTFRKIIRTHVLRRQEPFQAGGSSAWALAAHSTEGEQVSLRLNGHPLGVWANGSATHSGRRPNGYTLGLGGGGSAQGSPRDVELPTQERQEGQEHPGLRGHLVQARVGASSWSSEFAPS
Procedure: (§1) Synaptic membranes of rat cerebral cortex are employed in the assay. After decapitation of the rat, cerebral cortex is separated and homogenized sufficiently in 1:15 (W/V) sucrose solution, after centrifuged, the supernatant is taken and centrifuged again. After discarding the supernatant, the sediment is resuspended in 1:30 (W/V) Tris-HCl buffer (50 mM, PH 7.4), homogenized, washed and then centrifuged, after repeating the wash process 3 times, the sediment is resuspended in 1:5 (W/V) Tris-HCl buffer (50 mM, PH 7.4) again and subpakaged, stored at −80° C. The protein concentration is measured by Bradford method (Bradford M M. A rapid and sensitive method for the quantitation of microgram quantities of proteins utilizing the principle of protein-dye binding. Anal Biochem. 1976; 72: 248-254.). All the above procedures are operated at 4° C.
(§2) The above model is used to evaluate the competitive binding of paeoniflorin with the A1R and A2aR receptor mixed agonist [^3H]-ethyl amide adenosine ([3H]-NECA) and the A1R receptor selective agonist [3H]-CCPA.
(§3) After decapitation of the rat, cerebral cortex was separated immediately, and put it into ice-cold physiological saline. […] The protein concentration was measured by Bradford method. […]

A1R [3] = molecular target: T2, A1R (Rattus norvegicus, UniProt P25099); experiment: Competitive binding with [3H]-NECA, high-affinity site (two-site fit), rat cerebral cortex synaptic membranes
T2 construct: Synaptic membranes of rat cerebral cortex are employed in the assay; from tissue; host or cells: rat cerebral cortex synaptic membranes
T2 sequence (P25099 1-326): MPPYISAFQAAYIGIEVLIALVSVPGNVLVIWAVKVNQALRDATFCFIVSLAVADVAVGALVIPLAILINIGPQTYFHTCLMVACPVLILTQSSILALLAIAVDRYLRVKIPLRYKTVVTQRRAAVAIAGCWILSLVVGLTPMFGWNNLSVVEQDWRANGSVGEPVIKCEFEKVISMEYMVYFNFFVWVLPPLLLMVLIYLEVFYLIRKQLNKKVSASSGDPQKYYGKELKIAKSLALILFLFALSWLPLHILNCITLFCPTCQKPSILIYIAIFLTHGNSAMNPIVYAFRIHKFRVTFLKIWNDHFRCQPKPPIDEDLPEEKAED
Procedure: as §1, §2, §3

A1R [4] = molecular target: T2, A1R; experiment: Competitive binding with [3H]-CCPA, rat cerebral cortex synaptic membranes; details: 0.2 nmol/L [3H]-CCPA; rat cerebral cortex synaptic membrane
Procedure: as §1, §2, §3

transient MCAO rats = experiment: Transient focal cerebral ischemia model (transient MCAO); type: in vivo; details: transient MCAO rat

Row | Compound | effect of DPCPX on the protection by paeoniflorin (permanent MCAO model; DPCPX s.c. 15 min before ischemia + paeoniflorin 10 mg·kg^−1 s.c.) | deletion of dopaminergic neuron induced by MPTP (TH staining, substantia nigra) [1] | motor dysfunction (bradykinesia) caused by MPTP, pole test [1] | deletion of dopaminergic neuron induced by MPTP (TH staining, substantia nigra) ([1]; listed as Paeoniflorin) | motor dysfunction (bradykinesia) caused by MPTP, pole test ([1]; listed as Paeoniflorin) | blood pressure of conscious rats [2] | heart rate of conscious rats [2] | blood pressure of conscious rats ([2]; listed as Paeoniflorin) | heart rate of conscious rats ([2]; listed as Paeoniflorin) | injury of cerebral subcortical nucleus and cerebral cortex caused by ischemia, dose dependence (permanent MCAO model; 2.5, 5, 10 mg·kg^−1 s.c., TTC staining) | EC50 (A2AR) [nM] | selectivity EC502/EC501 (A1R [3]; A1R over A2AR, [3H]-NECA two-site fit) [times] | EC50 (A1R [3]; two-site competition fit, site 1, 25 nmol/L [3H]-NECA, rat cerebral cortex synaptic membrane, read-out: EC501, competitive binding with [3H]-NECA) [nM] | EC50 (A1R [4]) [nM] | neurological symptom (neurological defect score) (transient MCAO rats; 5 mg·kg^−1 s.c. at 15 min and 6 h after ischemia) | injury of cerebral subcortical nucleus and cerebral cortex caused by ischemia (transient MCAO rats; 5 mg·kg^−1 s.c., TTC staining)
1 | CCCn1c(=O)c2[nH]c(C3CCCC3)nc2n(CCC)c1=O [DPCPX] | this effect can be antagonized; also recorded: block the protection of paeoniflorin; also recorded: this effect could be inhibited | – | – | – | – | – | – | – | – | – | – | – | – | – | – | –
2 | β-D-Glucopyranoside,56-[(benzoyloxy)methyl]tetrahydro-5-hydroxy-2-methyl-2,5-methano-1H-3,4-dioxacyclobuta[cd]Pentalen-1a(2H)-yl,[lar-claα,2β,3aα,5aα,5bα]] [paeoniflorin] | – | antagonize the deletion of dopaminergic neuron | significantly improve the motor dysfunction | significantly antagonized | significantly antagonized | does not affect | does not affect | did not affect | did not affect | decreases the injury of cerebral subcortical nucleus and cerebral cortex caused by ischemia dose-dependently; also recorded: dose-dependently decreased the defect | 5000 | 360 | 13.9 | 19.8 | improves the neurological symptom; also recorded: obviously improved the neurological symptom | significantly decreases the injury; also recorded: significantly decreased the defect
